According to US6410792B1, “Amide derivatives and methods for using the same as selective neuropeptide Y receptor antagonists” (Bayer Corporation, priority 1997, dated 2002):
Like-named read-outs stand apart in the source and are kept apart here.

Legend:
Human NPY5 receptor = target: T1, Human NPY5 receptor (Homo sapiens, UniProt Q15761); test: Human NPY5 receptor binding assay ([125I]PYY, membrane protein)
T1 sequence (Q15761 1-445): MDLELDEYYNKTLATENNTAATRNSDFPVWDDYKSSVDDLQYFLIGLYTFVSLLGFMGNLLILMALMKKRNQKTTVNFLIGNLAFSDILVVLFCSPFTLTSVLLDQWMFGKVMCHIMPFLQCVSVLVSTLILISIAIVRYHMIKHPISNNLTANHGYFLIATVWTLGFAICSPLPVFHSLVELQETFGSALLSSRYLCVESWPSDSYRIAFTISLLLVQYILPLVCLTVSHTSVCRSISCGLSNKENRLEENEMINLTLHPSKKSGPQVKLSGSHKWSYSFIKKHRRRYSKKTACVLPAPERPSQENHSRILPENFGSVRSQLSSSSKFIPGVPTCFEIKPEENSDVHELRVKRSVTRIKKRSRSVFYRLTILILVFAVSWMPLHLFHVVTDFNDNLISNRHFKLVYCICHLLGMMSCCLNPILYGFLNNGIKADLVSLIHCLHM
Method in brief: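 Bound [125I]PYY is measured by gamma counting or liquid scintillation after vacuum filtration and ice-cold washes. Before that, membranes, 75-100 pM tracer and compound are incubated 2 hours at room temperature, with nonspecific binding defined by 1 μM PYY.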

Rat NPY5 receptor = target: T2, Rat NPY5 receptor (Rattus norvegicus, UniProt Q63634); test: Rat NPY5 receptor binding assay ([125I]PYY, membrane protein); details: [125I]PYY binding, read-out: rNPY5 IC50
T2 sequence (Q63634 1-445): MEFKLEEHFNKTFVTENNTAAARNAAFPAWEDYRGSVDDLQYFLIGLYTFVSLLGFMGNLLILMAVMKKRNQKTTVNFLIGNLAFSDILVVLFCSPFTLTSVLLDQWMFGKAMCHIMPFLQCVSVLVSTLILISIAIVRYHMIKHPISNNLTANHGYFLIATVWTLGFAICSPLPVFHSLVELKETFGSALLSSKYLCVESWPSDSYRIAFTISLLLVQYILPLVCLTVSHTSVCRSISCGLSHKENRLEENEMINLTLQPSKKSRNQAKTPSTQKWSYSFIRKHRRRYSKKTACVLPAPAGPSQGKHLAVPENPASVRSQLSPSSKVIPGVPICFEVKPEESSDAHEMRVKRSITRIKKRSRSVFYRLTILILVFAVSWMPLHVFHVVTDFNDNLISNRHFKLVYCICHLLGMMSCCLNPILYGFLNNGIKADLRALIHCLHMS
Procedure: C. Human and Rat NPY5 Receptor Binding Assays
Binding assays are performed on GF/C Millipore 96well plates pretreated with 0.02% polyethylenimine. The binding buffer is 25 mM Tris, 120 mM NaCl, 5 mM KCl, 1.2 mM KH2PO4, 2.5 mM CaCl2, 1.2 mM MgSO4, 0.1% BSA and 0.5 mg/ml bacitracin, pH 7.4. Samples consist of membrane protein, 75-100 pM [125I]PYY (porcine, NEN-DuPont) and drug dilution. Nonspecific binding is defined by 1 μM PYY. After a 2 hour incubation at room temperature with constant mixing, the samples are aspirated on a vacuum manifold, and rinsed with ice-cold binding buffer. The amount of radioactivity in each well is quantitated with either gamma counting or liquid scintillation.

Y2 receptor = target: T3, Y2 receptor (Homo sapiens, UniProt P49146); test: Y2 receptor binding assay ([125I]PYY, membrane protein); details: [125I]PYY binding, membrane protein; read-out: hNPY2 IC50
T3 sequence (P49146 1-381): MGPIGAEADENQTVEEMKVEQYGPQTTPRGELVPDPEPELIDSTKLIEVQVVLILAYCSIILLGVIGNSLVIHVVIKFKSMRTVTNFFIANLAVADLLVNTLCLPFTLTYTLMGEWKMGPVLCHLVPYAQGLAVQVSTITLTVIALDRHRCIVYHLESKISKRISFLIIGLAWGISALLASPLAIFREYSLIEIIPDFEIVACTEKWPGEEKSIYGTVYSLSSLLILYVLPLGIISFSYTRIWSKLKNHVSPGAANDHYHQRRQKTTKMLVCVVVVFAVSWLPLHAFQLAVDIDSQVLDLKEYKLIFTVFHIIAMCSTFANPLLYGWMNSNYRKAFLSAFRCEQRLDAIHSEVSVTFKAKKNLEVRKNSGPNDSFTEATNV
Method in brief: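 Filtration binding with membrane protein and drug dilution, 2 h at room temperature with mixing, radioactivity counted by gamma or scintillation. Y2: 25 pM [125I]PYY in Krebs-Ringer bicarbonate pH 7.4 with 0.01% BSA, nonspecific by 1 μM NPY. Y4/PP1: 50 pM [125I]hPP in HEPES-buffered saline pH 7.4 with protease inhibitors and 0.3% BSA, nonspecific by 1 μM hPP.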

[1] = [125I]PYY binding, read-out: hNPY5 IC50

Compound | IC50 (Human NPY5 receptor; [1]) [nM] | IC50 (Rat NPY5 receptor) [nM] | IC50 (Y2 receptor) [nM] | IC50 (Human NPY5 receptor; hNPY5 IC50, [125I]PYY binding) [nM]
COC(CNCC(=O)Nc1ccc(C(=O)c2ccccc2)cc1)OC [Compound 5, N-(4-Benzoyl-phenyl)-2-(2,2-dimethoxy-ethylamino)-acetamide] | 300 | 300 |  | 
CC1(C)CC(C(N)=O)C(C)(C)N1CC(=O)Nc1ccc(C2CCCCC2)cc1 (stereo not shown) [Compound 114, 1-[(4-Cyclohexyl-phenylcarbamoyl)-methyl] 2,2,5,5-tetramethyl-pyrrolidine-3-carboxylic acid amide] | 2400 |  | > 5000 | 
C=C(C)[C@@H]1CN(CC(=O)Nc2ccc(C3CCCCC3)cc2)[C@H](C(=O)O)[C@@H]1CC(=O)O [Compound 115, (2S,3R,4R)-3-Carboxymethyl-1-[(4-cyclohexyl-phenylcarbamoyl)-methyl]-4-isopropenyl-pyrrolidine-2-carboxylic acid] |  |  | > 5000 | > 10000
COc1ccc(C(=O)C2CCN(CC(=O)Nc3ccc(C4CCCCC4)cc3)CC2)cc1 [Compound 116, N-(4-Cyclohexyl-phenyl)-2-[4-(4-methoxy-benzoyl)-piperidin-1-yl]-acetamide] | 9500 |  | > 5000 | 
O=C(CN1CCC[C@@H]1C(=O)O)Nc1ccc(C2CCCCC2)cc1 [Compound 117, (2R)-1-[(4-Cyclohexyl-phenylcarbamoyl)-methyl]-pyrrolidine-2-carboxylic acid] | 3000 |  | > 5000 | 
O=C(CN1CCCC1CO)Nc1ccc(C(=O)c2ccccc2)cc1 (stereo not shown) [Compound 118, N-(4-Benzoyl-phenyl)-2-(2-hydroxymethyl-pyrrolidin-1-yl)-acetamide] | 2000 |  | > 5000 | 
CC1(C)CC(C(N)=O)C(C)(C)N1CC(=O)Nc1ccc(C(=O)c2ccccc2)cc1 (stereo not shown) [Compound 119, 1-[(4-Benzoyl-phenylcarbamoyl)-methyl]-2,2,5,5-tetramethyl-pyrrolidine-3-carboxylic acid amide] | 3600 |  | > 5000 | 
C=C(C)C1CN(CC(=O)Nc2ccc(C(=O)c3ccccc3)cc2)C(C(=O)O)C1CC(=O)O (stereo not shown) [Compound 120, 1-[(4-Benzoyl-phenylcarbamoyl)-methyl]-3-carboxymethyl-4-isopropenyl-pyrrolidine-2-carboxylic acid] |  |  | > 5000 | > 10000
O=C(CN1CCC(C(=O)c2ccc(F)cc2)CC1)Nc1ccc(C(=O)c2ccccc2)cc1 [Compound 121, N-(4-Benzoyl-phenyl)-2-[4-(4-fluoro-benzoyl)-piperidin-1-yl]-acetamide] | 95 |  | > 5000 | 
COc1ccc(C(=O)C2CCN(CC(=O)Nc3ccc(C(=O)c4ccccc4)cc3)CC2)cc1 [Compound 122, N-(4-Benzoyl-phenyl)-2-[4-(4-methoxy-benzoyl)-piperidin-1-yl]-acetamide] | 9900 |  | > 5000 | 
NC(=O)C1CCCN1CC(=O)Nc1ccc(C(=O)c2ccccc2)cc1 (stereo not shown) [Compound 123, 1-[(4-Benzoyl-phenylcarbamoyl)-methyl]-pyrrolidine-2-carboxylic acid amide] | 910 |  | > 5000 | 
O=C(CN1CCCC1C(O)(c1ccccc1)c1ccccc1)Nc1ccc(C(=O)c2ccccc2)cc1 (stereo not shown) [Compound 125, N-(4-Benzoyl-phenyl)-2-[2-(hydroxy-diphenyl-methyl)-pyrrolidin-1-yl]-acetamide] | 430 |  | > 5000 | 
O=C(CNCc1ccco1)Nc1ccc(C2CCCCC2)cc1 [Compound 160, N-(4-Cyclohexyl-phenyl)-2-[(furan-2-ylmethyl)-amino]-acetamide] | 660 | 450 |  | 
O=C(CNc1c(I)cc(C(=O)O)cc1I)Nc1ccc(C2CCCCC2)cc1 [Compound 165, 4-{[(4-Cyclohexyl-phenylcarbamoyl)-methyl]-amino)-3,5-diiodo-benzoic acid anion] | 1100 | 700 |  | 
O=C(CNCc1ccco1)Nc1ccc(C(=O)c2ccccc2)cc1 [Compound 166, N-(4-Benzoyl-phenyl)-2-[(furan-2-ylmethyl)-amino]-acetamide] | 610 | 730 |  | 
O=C(CNc1c(I)cc(C(=O)O)cc1I)Nc1ccc(C(=O)c2ccccc2)cc1 [Compound 171, 4-{[(4-Benzoyl-phenylcarbamoyl)-methyl]-amino)-3,5-diiodo-benzoic acid] | 530 | 1200 |  | 
O=C(CNC(CO)CO)Nc1ccc(C2CCCCC2)cc1 [Compound 173, N-(4-Cyclohexyl-phenyl)-2-(2-hydroxy-1-hydroxymethyl-ethylamino)-acetamide] | 2000 | 920 |  | 
O=C(CNCC1CC1)Nc1ccc(C2CCCCC2)cc1 [Compound 174, N-(4-Cyclohexyl-phenyl)-2-(cyclopropylmethyl-amino)-acetamide] | 610 | 840 |  | 
O=C(CNCCO)Nc1ccc(C2CCCCC2)cc1 [Compound 176, N-(4-Cyclohexyl-phenyl)-2-(2-hydroxy-ethylamino)-acetamide] | > 10000 | > 10000 |  | 
O=C1C=C(NCC(=O)Nc2ccc(C3CCCCC3)cc2)CCC1 [Compound 179, N-(4-Cyclohexyl-phenyl)-2-(3-oxo-cyclohex-1-enylamino)-acetamide] | > 10000 | > 10000 |  | 
O=C(O)CC(NCC(=O)Nc1ccc(C2CCCCC2)cc1)C(F)(F)F (stereo not shown) [Compound 180, 3-{[(4-Cyclohexyl-phenylcarbamoyl)-methyl]-amino}-4,4,4-trifluoro-butyric acid] | 170 | 120 |  | 
O=C(CNCC1CC1)Nc1ccc(C(=O)c2ccccc2)cc1 [Compound 184, N-(4-Benzoyl-phenyl)-2-(cyclopropylmethyl-amino)-acetamide] | 740 | 690 |  | 
O=C(O)CC(NCC(=O)Nc1ccc(C(=O)c2ccccc2)cc1)C(F)(F)F (stereo not shown) [Compound 190, 3-{[(4-Benzoyl-phenylcarbamoyl)-methyl]-amino}-4,4,4-trifluoro-butyric acid] | 340 | 340 |  | 
CNC1CCN(CC(=O)Nc2ccc(C3CCCCC3)cc2)C1 (stereo not shown) [Compound 193, N-(4-Cyclohexyl-phenyl)-2-(3-methylamino-pyrrolidin-1-yl)-acetamide] | 270 | 250 |  | 
(2R,4R)-1-[(4-Benzoyl-phenylcarbamoyl)-methyl]-4-hydroxy-pyrrolidine-2-carboxylic acid [Compound 101] | 6100 |  | > 5000 | 
(2R,4R)-1-[(4-Cyclohexyl-phenylcarbamoyl)-methyl]-4-hydroxy-pyrrolidine-2-carboxylic acid [Compound 90] | 3800 |  | > 5000 | 
N-(4-Benzoyl-phenyl)-2-(4-benzyl-4-hydroxy-piperidin-1-yl)-acetamide [Compound 111] | 160 |  | > 5000 | 
N-(4-Benzoyl-phenyl)-2-[4-(4-bromo-phenyl)-4-hydroxy-piperidin-1-yl]-acetamide [Compound 89] | 520 |  | > 5000 | 
N-(4-Cyclohexyl-phenyl)-2-[4-hydroxy-4-(3-trifluoromethyl-phenyl)-piperidin-1-yl]-acetamide [Compound 62] | 420 |  | > 5000 | 
